# Tests used:
# [1] = biological target: EGFR-WT (Homo sapiens (Human), UniProt P00533); assay: Enzymatic activity test (ADP-Glo) EGFR-WT; type: biochemical; conditions: kinase
# Description: • 1. […] Test information:
# To assess the effect of compounds on the activity of wild-type and mutant EGFR kinases, kinase activity was tested by measuring ATP consumption in an enzymatic reaction using an ADP-Glo (Promega Corporation) kit. Samples to be tested were dissolved in DMSO and diluted in a gradient. In a microplate, an EGFR kinase, a reaction buffer (containing Tris-HCl with a pH of 7.5, MgCl2, DTT and BSA), a kinase substrate Poly(Glu4, Tyr1) and a sample (a total volume of 20 μL per well) were added per well, while a blank control (no enzyme and sample) and a negative control (no sample) were set up; incubated for 15 minutes at 23° C.; added with 5 μL of ATP, and reacted at 23° C. for 60 minutes; added with ADP-Glo Reagent, and continuously reacted for 40 minutes at room temperature to inactivate the redundant ATP; then, added with a Kinase Detection Reagent, and reacted at room temperature for 30 minutes, then the chemiluminescence intensity L of each well was measured. […] IC50 values were calculated according to the above calculation using 4Parameter Logistic Model in XLfit software. • 3.
# [2] = system: NCI-H1975 EGFR DTC(C797S/T790M/Del19) cells; assay: In vivo pharmacodynamic study, subcutaneously implanted tumor NCI-H1975 EGFR DTC(C797S/T790M/Del19) (two-sided model); set-up: species or system BALB/c nude mouse
# Description: Passages were treated twice a week. When the cell number reached requirement, the cells were collected, counted and inoculated.
# Administration mode and frequency: oral gavage was carried out with an administration volume of 10 mL/kg, and the model group was administered with the same volume of solvent. The administration was once per day and continuously carried out for 16 days.
# (§1) General conditions such as spirit, activity, food intake and the like of the mice were observed every day, and the weight was measured thrice every week; the short diameter (a) and the long diameter (b) of each mouse tumor were measured thrice a week with a vernier caliper, and the tumor volume was calculated according to the formula (a^2×b)/2. The Relative Tumor Volume (RTV) was calculated from the measured tumor volume, wherein RTV=Vt/V0, wherein V0 was the tumor volume at random grouping (i.e., d0) and Vt was the tumor volume at each measurement (i.e., dn). The relative tumor proliferation rate of the evaluation index of the anti-tumor activity was calculated according to the following formula: relative tumor proliferation rate T/C (%): […]
# Note: TRTV: treatment group RTV; CRTV model control group RTV.
# [3] = system: BaF3 EGFR-DTC(C797S/T790M/Del19) cells; assay: In-vivo pharmacodynamic study, transplanted tumor model of BaF3 EGFR-DTC(C797S/T790M/Del19) cells in nude mice; set-up: species or system BALB/c nude mice
# Description: The models used in this test were subcutaneous transplanted tumor models of engineered BaF3 EGFR-DTC(C797S/T790M/Del19) cells in BALB/c nude mice. The engineered BaF3 cells were cultured in vitro suspension. […] Passages were treated twice a week. When the cell number reached requirement, the cells were collected, counted and inoculated. 0.2 mL (10^6) cells (added with matrigel, 1:1 by volume) were subcutaneously inoculated in the right back of each mouse, and divided into groups for administration with 6 mice per group when the mean tumor volume reached 109 mm^3.
# Administration mode and frequency: Oral gavage was carried out with an administration volume of 10 mL/kg, and the model group was administered with the same volume of solvent. The administration was once per day and continuously carried out for 14 days.
# as §1
# (Note: TRTV: treatment group RTV; CRTV: model control group RTV. According to the therapeutic effect evaluation standard in the Technical Guidelines for Non-clinical Research of Cytotoxic Anti-tumor Drugs Issued by National Medical Products Administration of China, the value (T/C %≤40%) was effective).
# [4] = Single administration toxicity test, orally intragastric administration to SD rats; type: in vivo; conditions: for Mortality Female: 5 female rats; for Mortality Female / Mortality Male / Mortality/total number of animals: day 15; for Mortality Male: 5 male rats
# Description: 8-week-old SD rats, 10 per group, male and female half, were purchased from Beijing SiPeiFu. The rats were tested after 3 days of acclimatization in this laboratory. The oral administration was performed by intragastric administration with an administration volume of 10 mL/kg. The rats were fasted and not forbidden to drink water for 17 hours before administration. The rats in the control group were given an equal volume of solvent via oral gavage. The feeding was resumed about 2 hours after the end of the administration.
# Observations were made twice daily after the administration. The day of first administration was defined as day 1 of the test. The test was carried out for 14 consecutive days, and ended in day 15.
# [5] = 20 mg/kg oral gavage once per day
# [6] = 40 mg/kg oral gavage once per day
# [7] = 25 mg/kg oral gavage once per day
# [8] = 50 mg/kg oral gavage once per day
# Sequence of EGFR-WT (P00533 25-1210): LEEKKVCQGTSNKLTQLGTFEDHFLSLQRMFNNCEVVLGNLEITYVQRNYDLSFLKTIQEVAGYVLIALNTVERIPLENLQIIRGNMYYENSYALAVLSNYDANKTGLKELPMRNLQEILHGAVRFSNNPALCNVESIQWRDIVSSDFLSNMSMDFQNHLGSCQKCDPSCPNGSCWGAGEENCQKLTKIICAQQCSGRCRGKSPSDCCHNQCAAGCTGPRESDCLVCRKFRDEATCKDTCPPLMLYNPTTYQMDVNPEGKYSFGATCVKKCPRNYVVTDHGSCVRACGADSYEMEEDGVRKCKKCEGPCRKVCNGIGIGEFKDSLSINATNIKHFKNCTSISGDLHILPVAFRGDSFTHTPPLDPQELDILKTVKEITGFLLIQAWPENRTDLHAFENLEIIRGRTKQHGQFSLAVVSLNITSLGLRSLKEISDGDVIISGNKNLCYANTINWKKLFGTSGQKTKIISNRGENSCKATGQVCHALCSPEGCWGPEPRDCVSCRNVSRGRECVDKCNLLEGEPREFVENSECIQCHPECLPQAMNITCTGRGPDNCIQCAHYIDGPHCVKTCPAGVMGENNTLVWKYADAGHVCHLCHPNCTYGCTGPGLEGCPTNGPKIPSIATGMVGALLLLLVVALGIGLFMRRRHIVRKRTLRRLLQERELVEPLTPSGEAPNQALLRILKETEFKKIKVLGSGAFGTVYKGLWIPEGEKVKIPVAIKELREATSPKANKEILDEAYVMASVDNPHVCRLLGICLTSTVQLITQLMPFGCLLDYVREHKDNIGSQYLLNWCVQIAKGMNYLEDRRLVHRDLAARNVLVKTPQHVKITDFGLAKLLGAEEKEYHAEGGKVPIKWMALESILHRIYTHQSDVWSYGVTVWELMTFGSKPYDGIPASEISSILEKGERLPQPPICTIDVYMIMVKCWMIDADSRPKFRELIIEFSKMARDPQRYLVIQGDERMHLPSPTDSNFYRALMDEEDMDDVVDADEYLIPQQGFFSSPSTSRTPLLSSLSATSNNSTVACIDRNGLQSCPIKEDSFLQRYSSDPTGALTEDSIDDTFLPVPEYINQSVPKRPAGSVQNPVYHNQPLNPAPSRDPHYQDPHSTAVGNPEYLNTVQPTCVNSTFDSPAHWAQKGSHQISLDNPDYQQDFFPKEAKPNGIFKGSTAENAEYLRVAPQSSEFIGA
smiles,measurement,setting,value
COc1cc(N2CCC(N3CCN(C)CC3)CC2)c(Cl)cc1Nc1ncc(Br)c(Nc2ccc(C)cc2P(C)(C)=O)n1 [Compound 14],IC50,[1],65.9 nM
COc1cc(N2CCC(N3CCN(C)CC3)CC2)c(C)cc1Nc1ncc(Br)c(Nc2ccc(C)cc2P(C)(C)=O)n1 [Compound 2],NCI-H1975 EGFR DTC(C797S/T790M/Del19) Tumor volume Day 0,[2]; [5],110 mm^3
same,NCI-H1975 EGFR DTC(C797S/T790M/Del19) T/C Day 2,[2]; [5],75.84%
same,NCI-H1975 EGFR DTC(C797S/T790M/Del19) Tumor volume Day 2,[2]; [5],147 mm^3
same,NCI-H1975 EGFR DTC(C797S/T790M/Del19) T/C Day 4,[2]; [5],66.68%
same,NCI-H1975 EGFR DTC(C797S/T790M/Del19) Tumor volume Day 4,[2]; [5],235 mm^3
same,NCI-H1975 EGFR DTC(C797S/T790M/Del19) T/C Day 6,[2]; [5],56.63%
same,NCI-H1975 EGFR DTC(C797S/T790M/Del19) Tumor volume Day 6,[2]; [5],321 mm^3
same,NCI-H1975 EGFR DTC(C797S/T790M/Del19) T/C Day 9,[2]; [5],43.36%
same,NCI-H1975 EGFR DTC(C797S/T790M/Del19) Tumor volume Day 9,[2]; [5],480 mm^3
same,NCI-H1975 EGFR DTC(C797S/T790M/Del19) T/C Day 11,[2]; [5],40.68%
same,NCI-H1975 EGFR DTC(C797S/T790M/Del19) Tumor volume Day 11,[2]; [5],583 mm^3
same,NCI-H1975 EGFR DTC(C797S/T790M/Del19) T/C Day 13,[2]; [5],40.09%
same,NCI-H1975 EGFR DTC(C797S/T790M/Del19) Tumor volume Day 13,[2]; [5],720 mm^3
same,NCI-H1975 EGFR DTC(C797S/T790M/Del19) T/C Day 16,[2]; [5],37.95%
same,NCI-H1975 EGFR DTC(C797S/T790M/Del19) Tumor volume Day 16,[2]; [5],1065 mm^3
same,NCI-H1975 EGFR DTC(C797S/T790M/Del19) Tumor volume Day 0,[2]; [6],113 mm^3
same,NCI-H1975 EGFR DTC(C797S/T790M/Del19) T/C Day 2,[2]; [6],67.13%
same,NCI-H1975 EGFR DTC(C797S/T790M/Del19) Tumor volume Day 2,[2]; [6],133 mm^3
same,NCI-H1975 EGFR DTC(C797S/T790M/Del19) T/C Day 4,[2]; [6],50.41%
same,NCI-H1975 EGFR DTC(C797S/T790M/Del19) Tumor volume Day 4,[2]; [6],177 mm^3
same,NCI-H1975 EGFR DTC(C797S/T790M/Del19) T/C Day 6,[2]; [6],39.48%
same,NCI-H1975 EGFR DTC(C797S/T790M/Del19) Tumor volume Day 6,[2]; [6],217 mm^3
same,NCI-H1975 EGFR DTC(C797S/T790M/Del19) T/C Day 9,[2]; [6],24.87%
same,NCI-H1975 EGFR DTC(C797S/T790M/Del19) Tumor volume Day 9,[2]; [6],269 mm^3
same,NCI-H1975 EGFR DTC(C797S/T790M/Del19) T/C Day 11,[2]; [6],22.07%
same,NCI-H1975 EGFR DTC(C797S/T790M/Del19) Tumor volume Day 11,[2]; [6],308 mm^3
same,NCI-H1975 EGFR DTC(C797S/T790M/Del19) T/C Day 13,[2]; [6],18.98%
same,NCI-H1975 EGFR DTC(C797S/T790M/Del19) Tumor volume Day 13,[2]; [6],327 mm^3
same,NCI-H1975 EGFR DTC(C797S/T790M/Del19) T/C Day 16,[2]; [6],14.36%
same,NCI-H1975 EGFR DTC(C797S/T790M/Del19) Tumor volume Day 16,[2]; [6],385 mm^3
same,Tumor volume Day 0,[3]; [7],109 mm^3
same,Relative tumor proliferation rate T/C Day 3,[3]; [7],59.22%
same,Tumor volume Day 3,[3]; [7],87 mm^3
same,Relative tumor proliferation rate T/C Day 5,[3]; [7],34.07%
same,Tumor volume Day 5,[3]; [7],62 mm^3
same,Relative tumor proliferation rate T/C Day 7,[3]; [7],10.38%
same,Tumor volume Day 7,[3]; [7],41 mm^3
same,Relative tumor proliferation rate T/C Day 10,[3]; [7],5.06%
same,Tumor volume Day 10,[3]; [7],31 mm^3
same,Relative tumor proliferation rate T/C Day 12,[3]; [7],3.12%
same,Tumor volume Day 12,[3]; [7],27 mm^3
same,Tumor volume Day 14,[3]; [7],41 mm^3
same,Tumor volume Day 0,[3]; [8],109 mm^3
same,Relative tumor proliferation rate T/C Day 3,[3]; [8],44.97%
same,Tumor volume Day 3,[3]; [8],67 mm^3
same,Relative tumor proliferation rate T/C Day 5,[3]; [8],24.07%
same,Tumor volume Day 5,[3]; [8],44 mm^3
same,Relative tumor proliferation rate T/C Day 7,[3]; [8],7.97%
same,Tumor volume Day 7,[3]; [8],32 mm^3
same,Relative tumor proliferation rate T/C Day 10,[3]; [8],3.62%
same,Tumor volume Day 10,[3]; [8],22 mm^3
same,Relative tumor proliferation rate T/C Day 12,[3]; [8],1.91%
same,Tumor volume Day 12,[3]; [8],17 mm^3
same,Tumor volume Day 14,[3]; [8],12 mm^3
same,Mortality Female,[4]; 25 mg/kg single dose,0
same,Mortality Male,[4]; 25 mg/kg single dose,0
same,Mortality/total number of animals,[4]; 25 mg/kg single dose,0/10
same,Mortality Female,[4]; 75 mg/kg single dose,0
same,Mortality Male,[4]; 75 mg/kg single dose,0
same,Mortality/total number of animals,[4]; 75 mg/kg single dose,0/10
same,Mortality Female,[4]; 100 mg/kg single dose,0
same,Mortality Male,[4]; 100 mg/kg single dose,0
same,Mortality/total number of animals,[4]; 100 mg/kg single dose,0/10
same,Mortality Female,[4]; 125 mg/kg single dose,0
same,Mortality Male,[4]; 125 mg/kg single dose,0
same,Mortality/total number of animals,[4]; 125 mg/kg single dose,0/10
same,Mortality Female,[4]; 150 mg/kg single dose,0
same,Mortality Male,[4]; 150 mg/kg single dose,1
same,Mortality/total number of animals,[4]; 150 mg/kg single dose,1/10
same,Mortality Female,[4]; 200 mg/kg single dose,0
same,Mortality Male,[4]; 200 mg/kg single dose,0
same,Mortality/total number of animals,[4]; 200 mg/kg single dose,0/10
same,MTD at 14 days,"[4]; both sexes, rat, in vivo, po, SD rats, single orally intragastric administration, read-out: Maximum Tolerated Dose (MTD)",125 mg/kg

# Reference: US20230322822A1, “ARYL PHOSPHOROUS OXIDE COMPOUNDS AND USE THEREOF” (Chengdu Di'ao Jiuhong Pharmaceutical Factory, priority 2020, published 2023)
